# Tested on: patients with MDD
# Assay: Double-masked, placebo-controlled clinical study of tasimelteon in patients with MDD (NCT01428661), Hamilton Depression Scale
# Assay type: in vivo, human
# Protocol: A large clinical study was conducted to evaluate the effects of tasimelteon on depressive symptoms in patients with MDD. Details of the study design are set out in study number NCT01428661, available at clinicaltrials.gov. Aspects of the study relevant to the claimed invention are described below.
# A total of 507 patients with MDD were enrolled in a double-masked, placebo-controlled study randomized on either tasimelteon 20 mg (n=254) or placebo (n=253). Patients were assessed at baseline and weekly for eight weeks on a number of depression scales, including the Hamilton Depression Scale (HAMD).
smiles,measurement,setting,value
"CCC(=O)NC[C@@H]1C[C@H]1c1cccc2c1CCO2 (relative stereo) [Tasimelteon, trans-N-[[2-(2,3-dihydrobenzofuran-4-yl)cycloprop-1yl]methyl] propanamide]",improvement on the HAMD scale,"African-American MDD patients, at eight weeks, tasimelteon 20 mg (n=78), p=0.018 vs placebo",9.9 points
same,"responder analysis (improvement in the HAMD scale of 50% or greater from baseline), patients showing improvement","African-American MDD patients, at eight weeks, tasimelteon 20 mg, p=0.0019 vs placebo",59%
same,improvement from baseline on the HAMD scale,"all randomized MDD patients, tasimelteon 20 mg (n=254), p=0.57 vs placebo",8.1 points

# From patent US20220280471A1, “Treatment of Affective Disorders” (Vanda Pharmaceuticals Inc., priority 2017, published 2022)
